From patent US20220073475A1, “5-MEMBERED HETEROARYL COMPOUNDS CONTAINING A HYDROXAMATE MOIETY AND THEIR USE” (UNIVERSITE DE LILLE, priority 2019, published 2022)

Key:
OPM2 cells = test: CFZ potency increase, ratio of CC50 of CFZ alone / with compound; type: cell-based, human
Excerpt: Human multiple myeloma cells OPM2 (ACC 50, DSMZ) are maintained at 0.3-0.7 10^6 cells/mL in RPMI1640 medium supplemented with GlutaMAX™, 10% fetal bovine serum and 1% penicillin-streptomycin.
We developed a cell-based, high content assay allowing the rapid detection and quantification of apoptotic cells. Caspase-3/7 activity was detected in real-time using the NucView™ 488 Caspase-3 substrate (Biotium), where the caspase-3/7 substrate peptide sequence DEVD is attached to a nucleic acid dye. The NucView™ 488 reagent crosses the plasma membrane to enter the cytoplasm, where the dye is unable to bind to DNA and remains non-fluorescent. Once the substrate has been cleaved by activated caspase-3/7 in apoptotic cells, the high-affinity DNA dye is released and migrates to the cell nucleus to stain the nucleus with a bright green fluorescence. All cell nuclei were also labeled with Hoechst 33342 (Ozyme).
For OPM2, briefly, nanoliters of compound and cytotoxic agent in DMSO stock solutions were first transferred and combined in 384-microtiter well plate using an Echo555 liquid handler (Labcyte). The exact volume of each solution to be transferred was calculated to achieve subsequently the target concentration in the 70 μL volume incubate. Final DMSO content was maintained at 0.2%. Then, 70 μL of cells treated with 1 μM NucView™ 488 and 20 ng/mL Hoechst 33342 were distributed to the plates to obtain a final density of 12,000 cells per well. The microplates were incubated at 37° C. and 5% CO2 in an automated LiCONiC STR240 UB cell incubator, and images were acquired at various times at 405 nm and 488 nm with the high-resolution automated confocal microscope INCell 6000 (GE). Four fields per well were read with the 20× objective in a confocal mode. The BioCel workstation was managed by VWorks automation control software
For all cells, Columbus software (Perkin) was used for image quantification and analysis. First, Hoechst 33342 staining was used for an automated detection of nuclei, in which the mean fluorescence intensity for NucView™ 488 was quantified. Inspection of control cells at initial time was used to set a threshold level of NucView™ 488 fluorescence to separate non apoptotic cells from apoptotic cells. Finally, for each well, the result was expressed as percentage of apoptotic cells in the total cell population. CC50 values were calculated from concentration-response curves by a nonlinear regression analysis at four parameters using Excel Fit or GraphPad Prim softwares.
Activity=(% of apoptotic cells with cytotoxic agent in combination with compound of the invention)/(% of apoptotic cells with cytotoxic agent alone). • Ratio of CC50: The CC50 of the cytotoxic agent was calculated in absence and in presence of a compound of the invention.
Activity=(CC50 of agent alone)/(CC50 of agent with compound). • Ratio of AUC. Activity=(Area of the dose-concentration curve of cytotoxic agent combined with one concentration of compound)/(Area of the dose-concentration curve of cytotoxic agent alone). (Lehar J. et al, 2008 (molecular systems biology 4:215)).

TLM1 cells = test: X-ray radiation in combination with compound, propidium iodide dead cells, ratio of corrected AUC; type: cell-based, canine; conditions: for Potency of X-ray radiations in combination with compound (in words): TLM1; for Activity: ratio of corrected AUC of X-ray radiation in combination with compound / corrected AUC of X-ray radiation alone: TLM1, compound at 30 μM
Procedure: Canine melanoma TLM-1 cells are maintained in DMEM medium supplemented with GlutaMAX™, 10% fetal bovine serum, 1× Hepes and 1% penicillin-streptomycin.
TLM-1 cells were seeded with the BioTek MicroFlo™ dispenser in μClear® black 384-well plates (Greiner) at the density of 20,000 cells/mL in 50 μL. Compounds for pre-treatment were added 2 h after the seeding, using an Echo 550 (Labcyte). The next day, cells were washed five times with 40 μL media without phenol red with a plate washer (Hydrospeed, Tecan). Cells were irradiated with 4, 6, 8, 12, 16, 20 and 24 Gray (Gy). […] This step was repeated every 72 h after radiation. Plates were incubated at 37° C. and 5% CO2. […] 4 images per well were collected. Images were analyzed with Columbus software (Perkin Elmer). In this system we used predefined building blocks to measure different parameters on nuclei detected. We applied a threshold based on propidium iodide intensity in nuclei of controls to select and count dead cells. By dividing the number of dead cells by the number of nuclei detected we obtained the percentage of dead cells. AUC were determined in one experiment with triplicate incubates on percentage of cells labelled with propidium iodide and were corrected by the percentage of cells labelled with propidium iodide at 0 Gy. Ratio of AUC corrected was determined as followed: Activity=(Area of the dose-concentration curve of cytotoxic agent combined with one concentration of compound corrected by the effect of the compound alone at 0Gy)/(Area of the dose-concentration curve of radiation alone corrected by the effect of the vehicle at 0Gy).

[1] = OPM2, compound at 7.5 μM (Table 5)

What does the source list for O=C(C[C@@H](Cc1ccc2ccccc2c1)n1cc([C@@H]2CCCN2C(=O)c2ccc(F)c(F)c2)nn1)NO [Compound 93, (3R)-3-[4-[(2S)-1-(3,4-difluorobenzoyl)pyrrolidin-2-yl]triazol-1-yl]-4-(2-naphthyl)butanehydroxamic acid]?
Activity: ratio (CC50 of CFZ alone)/(CC50 of CFZ in combination with compound of the invention) (OPM2 cells; [1]): 2.3; Potency of X-ray radiations in combination with compound (in words) (TLM1 cells): increase the potency; Activity: ratio of corrected AUC of X-ray radiation in combination with compound / corrected AUC of X-ray radiation alone (TLM1 cells): 1.2

Which results are given for O=C(C[C@@H](Cc1ccc2c(c1)CCCC2)n1cc(CNC(=O)c2ccc(F)c(F)c2)nn1)NO [Compound 144, (R)-3,4-difluoro-N-((1-(4-(hydroxyamino)-4-oxo-1-(5,6,7,8-tetrahydronaphthalen-2-yl)butan-2-yl)-1H-1,2,3-triazol-4-yl)methyl)benzamide]?
Activity: ratio (CC50 of CFZ alone)/(CC50 of CFZ in combination with compound of the invention) (OPM2 cells; OPM2, compound at a concentration of 3.7 μM (Table 5, footnote b)): 1.8; Potency of X-ray radiations in combination with compound (in words) (TLM1 cells): increase the potency; Activity: ratio of corrected AUC of X-ray radiation in combination with compound / corrected AUC of X-ray radiation alone (TLM1 cells): 2.4

Which “Activity: ratio (CC50 of CFZ alone)/(CC50 of CFZ in combination with compound of the invention)” value (OPM2 cells; [1]) does the source give for CC(NC(=O)c1ccc(F)c(F)c1)c1cn([C@@H](CC(=O)NO)Cc2ccc3c(c2)CCCC3)nn1 (stereo partly drawn) [Compound 168, 3,4-difluoro-N-(1-(1-((R)-4-(hydroxyamino)-4-oxo-1-(5,6,7,8-tetrahydronaphthalen-2-yl)butan-2-yl)-1H-1,2,3-triazol-4-yl)ethyl)benzamide] here?
The value was 2.8.

And the “Potency of X-ray radiations in combination with compound (in words)” value (shortened to “Potency of X-ray radiations”) (TLM1 cells)?
The value was “increase the potency”.

What about the “Activity: ratio of corrected AUC of X-ray radiation in combination with compound / corrected AUC of X-ray radiation alone” value (TLM1 cells) of the same molecule?
The value was 2.4.

How did the “Activity: ratio (CC50 of CFZ alone)/(CC50 of CFZ in combination with compound of the invention)” value (OPM2 cells; [1]) turn out when CN(Cc1cn([C@@H](CC(=O)NO)Cc2ccc3c(c2)CCCC3)nn1)C(=O)c1ccc(F)c(F)c1 [Compound 169, (R)-3,4-difluoro-N-((1-(4-(hydroxyamino)-4-oxo-1-(5,6,7,8-tetrahydronaphthalen-2-yl)butan-2-yl)-1H-1,2,3-triazol-4-yl)methyl)-N-methylbenzamide] was run?
The value was 3.3.

What about the “Potency of X-ray radiations” value (TLM1 cells) of the same molecule?
Its value is “increase the potency”.

And the “Activity: ratio of corrected AUC of X-ray radiation in combination with compound / corrected AUC of X-ray radiation alone” value (TLM1 cells)?
Its value is 2.5.

For O=C(C[C@@H](Cc1csc2ccccc12)n1cc(CNC(=O)c2ccc(F)c(F)c2)nn1)NO [Compound 179, (R)—N-((1-(1-(benzo[b]thiophen-3-yl)-4-(hydroxyamino)-4-oxobutan-2-yl)-1H-1,2,3-triazol-4-yl)methyl)-3,4-difluorobenzamide], which “Activity: ratio (CC50 of CFZ alone)/(CC50 of CFZ in combination with compound of the invention)” value (OPM2 cells; [1]) is on record?
Its value is 1.6.

O=C(C[C@@H](Cc1csc2ccccc12)n1cc(CNC(=O)c2ccc(F)cc2)nn1)NO [Compound 180, (R)—N-((1-(1-(benzo[b]thiophen-3-yl)-4-(hydroxyamino)-4-oxobutan-2-yl)-1H-1,2,3-triazol-4-yl)methyl)-4-fluorobenzamide] was tested. Which “Activity: ratio (CC50 of CFZ alone)/(CC50 of CFZ in combination with compound of the invention)” value (OPM2 cells; [1]) did it give?
The value was 1.8.

With CC(NC(=O)c1ccc(F)cc1)c1cn([C@@H](CC(=O)NO)Cc2csc3ccccc23)nn1 (stereo partly drawn) [Compound 181, N-(1-(1-((R)-1-(benzo[b]thiophen-3-yl)-4-(hydroxyamino)-4-oxobutan-2-yl)-1H-1,2,3-triazol-4-yl)ethyl)-4-fluorobenzamide] as the molecule, how does the “Activity: ratio (CC50 of CFZ alone)/(CC50 of CFZ in combination with compound of the invention)” value (OPM2 cells; [1]) read?
The value was 1.9.

O=C(C[C@@H](Cc1cc2ccccc2s1)n1cc(CNC(=O)c2ccc(F)cc2)nn1)NO [Compound 182, (S)—N-((1-(1-(benzo[b]thiophen-2-yl)-4-(hydroxyamino)-4-oxobutan-2-yl)-1H-1,2,3-triazol-4-yl)methyl)-4-fluorobenzamide] was tested. Which “Activity: ratio (CC50 of CFZ alone)/(CC50 of CFZ in combination with compound of the invention)” value (OPM2 cells; [1]) did it give?
Its value is 2.7.

With O=C(C[C@@H](Cc1ccc2c(c1)OCCO2)n1cc(CNC(=O)c2ccc(F)c(F)c2)nn1)NO [Compound 183, (R)—N-((1-(1-(2,3-dihydrobenzo[b][1,4]dioxin-6-yl)-4-(hydroxyamino)-4-oxobutan-2-yl)-1H-1,2,3-triazol-4-yl)methyl)-3,4-difluorobenzamide] as the molecule, how does the “Activity: ratio (CC50 of CFZ alone)/(CC50 of CFZ in combination with compound of the invention)” value (OPM2 cells; [1]) read?
The value was 1.2.

O=C(C[C@@H](Cc1ccc2ccccc2c1)n1cc(CNC(=O)c2cccc(F)c2)nn1)NO [Compound 184, (R)-3-fluoro-N-((1-(4-(hydroxyamino)-1-(naphthalen-2-yl)-4-oxobutan-2-yl)-1H-1,2,3-triazol-4-yl)methyl)benzamide] was tested. Which “Activity: ratio (CC50 of CFZ alone)/(CC50 of CFZ in combination with compound of the invention)” value (OPM2 cells; [1]) did it give?
The value was 2.4.

For CN(Cc1cn([C@@H](CC(=O)NO)Cc2ccc3ccccc3c2)nn1)C(=O)c1ccc(F)cc1 [Compound 185, (R)-4-fluoro-N-((1-(4-(hydroxyamino)-1-(naphthalen-2-yl)-4-oxobutan-2-yl)-1H-1,2,3-triazol-4-yl)methyl)-N-methylbenzamide], which “Activity: ratio (CC50 of CFZ alone)/(CC50 of CFZ in combination with compound of the invention)” value (OPM2 cells; [1]) is on record?
Its value is 1.8.

With O=C(C[C@@H](Cc1ccc2ccccc2c1)n1cc(C2CSCN2C(=O)c2ccc(F)cc2)nn1)NO (stereo partly drawn) [Compound 186, (3R)-3-(4-(3-(4-fluorobenzoyl)thiazolidin-4-yl)-1H-1,2,3-triazol-1-yl)-N-hydroxy-4-(naphthalen-2-yl)butanamide] as the molecule, how does the “Activity: ratio (CC50 of CFZ alone)/(CC50 of CFZ in combination with compound of the invention)” value (OPM2 cells; [1]) read?
Its value is 2.9.

What about the “Potency of X-ray radiations” value (TLM1 cells) of the same molecule?
Its value is “increase the potency”.

What about the “Activity: ratio of corrected AUC of X-ray radiation in combination with compound / corrected AUC of X-ray radiation alone” value (TLM1 cells) of the same molecule?
The value was 2.0.

What does the source list for O=C(C[C@@H](Cc1ccc2ccccc2c1)n1cc(C2CCCCN2C(=O)c2ccc(F)cc2)nn1)NO (stereo partly drawn) [Compound 187, (3R)-3-(4-(1-(4-fluorobenzoyl)piperidin-2-yl)-1H-1,2,3-triazol-1-yl)-N-hydroxy-4-(naphthalen-2-yl)butanamide]?
Activity: ratio (CC50 of CFZ alone)/(CC50 of CFZ in combination with compound of the invention) (OPM2 cells; [1]): 3.4; Potency of X-ray radiations in combination with compound (in words) (TLM1 cells): increase the potency; Activity: ratio of corrected AUC of X-ray radiation in combination with compound / corrected AUC of X-ray radiation alone (TLM1 cells): 2.4
